Results as given in US6414014B1 (Bristol-Myers Squibb Company, priority 1992, dated 2002).

Key:
[1] = test system: patients suffering from ovarian carcinoma; assay: Multi-center, randomized comparative study of taxol in platinum pretreated ovarian carcinoma: objective response; type: in vivo
From the text: The high degree of success, greater than 10% of objective response, to treatment by patients suffering from drug refractory ovarian carcinoma is truly astonishing, since responses to drug refractory ovarian carcinoma are extremely uncommon. While experimental data is provided herein for the successful treatment of ovarian carcinoma with taxol using the present treatment protocol, it is to be understood that the treatment protocol can be used for the treatment of other forms of cancer with taxol, such as melanoma, renal cell carcinoma, and other cancers which are treatable with taxol.
Responses were evaluated every two cycles.
Patients with ovarian carcinoma included in the study had been treated with and were unresponsive to a minimum of one but no more than two platinum-containing chemotherapy regimens, and were required to have shown progression during or relapse after their last regimen of chemotherapy. Patients were treated every 21 days if allowed by toxicity.
While an emulsion of taxol in polyethoxylated caster oil in dehydrated alcohol is utilized as a vehicle in a preferred embodiment, it is contemplated that other pharmaceutically acceptable vehicles for taxol may be used.
This procedure enables the accurate accessment of the patient receiving the taxol.
Patients ranged between 18 and 75 years in age with an Eastern Cooperative Oncology Group, ECOG, performance status of 0, 1, or 2, and had to have recovered from all toxicities of previous treatment. Further, no prior chemotherapy or radiotherapy were allowed within four weeks prior to entry into the study (patients were also not entered into the study if there had been less than six weeks since prior mitomycin, nitrosureas, or high-dose carboplatin therapy). An adequate baseline bone marrow function was required, which was defined as a granulocyte count ≧2,000 cells/cmm and a platelet count ≧100,000 cells/cmm. Adequate hepatic and renal functions were required with normal hepatic function defined as total billirubin ≦1.5 times upper normal value and normal renal function defined as serum creatinine ≦1.5 times upper normal value. Patients with abdominal adenocarcinoma, a previous history of a trial or ventricular arrhythmias, congestive heart failure, myocardial infarction within six months preceding randomization, complete bowel obtruction, a pre-existing neuropathy <WHO grade 2, active infection, prior allergic reaction to drugs containing Cremaphor, or other serious medical condition were excluded from this study.
Eligible patients were randomized according to a computerized randomization log. During therapy, hematology data (hemoglobin, white blood cell count, granulocytes and platelets) were collected, and toxicity assessments were continuously made. After each cycle, a physical history update was recorded, as well as tumor measurement, performance status (ECOG), hematology, chemistry (serum creatinine, billirubin, alkaline phosphatase, (SLOT (AST), CA125) and a toxicity assessment. A quality of life assessment was also made after each cycle, and every two months until six months after treatment stopped.

[2] = Peripheral neuropathy symptoms (PNS) in the randomized taxol study; type: in vivo, patients
Description: A nurse remained with each patient for the first hour of each infusion. Temperature, pulse, blood pressure, and respiration were taken preinfusion, every 15 minutes for the first hour, every thirty minutes for the next 2 hours, hourly for the next 4 hours, and every other hour until the end of the infusion (for patients receiving the 24-hour infusion). Other observations were also documents, such as rash/redness of the skin, hives, vomiting, nausea, and any other symptoms including neuropathy and skin rashes.
80 of 157 patients (51%) experienced some sign of symptom of peripheral neurotoxicity. The incidents in the high dose arms was 66% (49/74), while the incidents in the low dose arms was 37% (31/83). The incidents of peripheral neuropathy in the long-term (24-hour) infusion was 48% (43/89), while the incidents of peripheral neuropathy in the short-term infusion arms was […] (37/68).

[3] = in vivo
Description: Patients with platinum pretreated recurrent ovarian cancer were randomized to a 135 or 175 mg/m^2 dose arm, administered as a 3-hour or 24-hour IV infusion, which was repeated every three weeks. Responses were evaluated every two cycles. All four treatment groups were matched for age, performance status, previous treatments, and time from last platinum therapy.
All rechallenge patients received a prolonged 24-hour infusion, even if the hypersensitivity reaction occurred during a 3-hour infusion. Dosage reductions in subsequent treatment courses were mandated for all patients having (1) a granulocyte count of less than 500 cells/cmm, (2) a platelet count of less than 50,000 cells/cmm for seven days or more, (3) febrile neutropenia, (4) infection, (5) hemmorage, (6) mucositis with vesiculation and/or ulcers, or (7) vomiting appearing despite anti-emitic premedication.

[4] = arm 135/3 (mg/m^2/infusion hours), n = 39
[5] = arm 135/24 (mg/m^2/infusion hours), n = 44
[6] = arm 175/3 (mg/m^2/infusion hours), n = 29
[7] = arm 175/4 (mg/m^2/infusion hours), n = 45

## CC(=O)O[C@H]1C(=O)[C@@]2(C)[C@H]([C@H](OC(=O)c3ccccc3)[C@]3(O)C[C@H](OC(=O)[C@H](O)[C@@H](NC(=O)c4ccccc4)c4ccccc4)C(C)=C1C3(C)C)[C@]1(OC(C)=O)CO[C@@H]1C[C@@H]2O [taxol]
[1]
  stabilization of disease, patients with an early relapse after platinum: 53%
[1]; 3 out of 46
  response to taxol in patients who had progressed on previous platinum containing chemotherapy: 7%
[1]; 14/114, progression on therapy or relapse within six months
  response to taxol in patients considered resistant to platinum therapy: 13%
[1]; 22/135 patients
  objective response rate, not evaluated and unevaluable patients excluded: 16%
[1]; 24/46
  stabilization of disease, patients with disease truly refractory to platinum: 52%
[1]; in vivo
  response to taxol, platinum resistant patients with one previous regimen of platinum: 15%
  response to taxol, platinum resistant patients with two previous regimens of platinum: 10%
[1]; of 157 patients
  patients with stable disease continued on taxol: 51 patients
[2]; 44 of 118 patients
  patients asymptomatic prior to taxol who developed some peripheral neuropathy symptoms: 37%
[2]; 80 of 157, all arms
  patients with some sign or symptom of peripheral neurotoxicity: 51%
[2]; TOTAL, all four arms, n = 157
  First Occurence/Worsening of PNS By Cumulative Dose of Taxol: 201-400 mg/m^2: 22 n (%)
  First Occurence/Worsening of PNS By Cumulative Dose of Taxol: 401-600 mg/m^2: 4 n (%)
  First Occurence/Worsening of PNS By Cumulative Dose of Taxol: >600 mg/m^2: 5 n (%)
  First Occurence/Worsening of PNS By Cumulative Dose of Taxol: ≦200 mg/m^2: 23 n (%)
  Number of Patients Who Developed or Worsened PNS: 54 (34) n (%)
[2]; [4]
  First Occurence/Worsening of PNS By Courses: Course 1: 4 n (%)
  First Occurence/Worsening of PNS By Courses: Course 3: 1 n (%)
  First Occurence/Worsening of PNS By Courses: Course 4 and more: 3 n (%)
  First Occurence/Worsening of PNS By Cumulative Dose of Taxol: 201-400 mg/m^2: 1 n (%)
  First Occurence/Worsening of PNS By Cumulative Dose of Taxol: 401-600 mg/m^2: 2 n (%)
  First Occurence/Worsening of PNS By Cumulative Dose of Taxol: >600 mg/m^2: 2 n (%)
  First Occurence/Worsening of PNS By Cumulative Dose of Taxol: ≦200 mg/m^2: 4 n (%)
  Number of Patients Who Developed or Worsened PNS: 8 (21) n (%)
[2]; [5]
  First Occurence/Worsening of PNS By Courses: Course 1: 3 n (%)
  First Occurence/Worsening of PNS By Courses: Course 2: 2 n (%)
  First Occurence/Worsening of PNS By Courses: Course 3: 1 n (%)
  First Occurence/Worsening of PNS By Courses: Course 4 and more: 1 n (%)
  First Occurence/Worsening of PNS By Cumulative Dose of Taxol: 201-400 mg/m^2: 3 n (%)
  First Occurence/Worsening of PNS By Cumulative Dose of Taxol: 401-600 mg/m^2: 1 n (%)
  First Occurence/Worsening of PNS By Cumulative Dose of Taxol: >600 mg/m^2: 1 n (%)
  First Occurence/Worsening of PNS By Cumulative Dose of Taxol: ≦200 mg/m^2: 3 n (%)
  Number of Patients Who Developed or Worsened PNS: 7 (16) n (%)
[2]; [6]
  First Occurence/Worsening of PNS By Courses: Course 1: 7 n (%)
  First Occurence/Worsening of PNS By Courses: Course 2: 9 n (%)
  First Occurence/Worsening of PNS By Courses: Course 3: 1 n (%)
  First Occurence/Worsening of PNS By Courses: Course 4 and more: 1 n (%)
  First Occurence/Worsening of PNS By Cumulative Dose of Taxol: 201-400 mg/m^2: 9 n (%)
  First Occurence/Worsening of PNS By Cumulative Dose of Taxol: 401-600 mg/m^2: 1 n (%)
  First Occurence/Worsening of PNS By Cumulative Dose of Taxol: >600 mg/m^2: 1 n (%)
  First Occurence/Worsening of PNS By Cumulative Dose of Taxol: ≦200 mg/m^2: 7 n (%)
  Number of Patients Who Developed or Worsened PNS: 18 (62) n (%)
[2]; [7]
  First Occurence/Worsening of PNS By Courses: Course 1: 9 n (%)
  First Occurence/Worsening of PNS By Courses: Course 2: 8 n (%)
  First Occurence/Worsening of PNS By Courses: Course 3: 1 n (%)
  First Occurence/Worsening of PNS By Courses: Course 4 and more: 2 n (%)
  First Occurence/Worsening of PNS By Cumulative Dose of Taxol: 201-400 mg/m^2: 8 n (%)
  First Occurence/Worsening of PNS By Cumulative Dose of Taxol: 401-600 mg/m^2: 2 n (%)
  First Occurence/Worsening of PNS By Cumulative Dose of Taxol: >600 mg/m^2: 1 n (%)
  First Occurence/Worsening of PNS By Cumulative Dose of Taxol: ≦200 mg/m^2: 9 n (%)
  Number of Patients Who Developed or Worsened PNS: 20 (44) n (%)
[2]; high dose arms, 49/74
  incidence of peripheral neurotoxicity: 66%
[2]; in vivo
  peripheral neuropathy symptoms (PNS), about 135 mg/m^2 rather than about 175 mg/m^2: reduced
[2]; long-term (24-hour) infusion, 43/89
  incidence of peripheral neuropathy: 48%
[2]; low dose arms, 31/83
  incidence of peripheral neurotoxicity: 37%
[2]; short-term infusion arms, 37/68
  incidence of peripheral neuropathy: 50%
[3]; female, human, 9 weeks
  patients who required a dose reduction: 17%
[3]
  dose reduction required, long term infusion arms versus short term infusion arms: more frequently
